Laboratory results from US20250154112A1, “A PREPARATION OF QUINAZOLINEDIONES AND USE THEREOF” (COUNCIL OF SCIENTIFIC AND INDUSTRIAL RESEARCH AN INDIAN …, priority 2021, published 2025).

Test system: HepG2 cells
Assay: Confocal microscopy of lipid droplets in oleate induced HepG2 cells
Type: cell-based
Details: 250 μM oleate induction, 100 nM and 500 nM, 24 hours
Experimental: To select the compounds capable of inhibiting the ubiquitination of ATGL by COP1 by targeting the VP motif, confocal microscopy was performed with the provided molecules. If the compound was effective in inhibiting the interaction, there would have been a reduction in the number of fat droplets in the cells after treatment. […] With this rationale in mind, HepG2 cells were induced to accumulate lipid droplets after treatment with 250 μM of oleate and 10 μM of the specific compounds were added. The potential of the compounds to bring about a reduction in the number of fat droplets was then checked by comparison with oleate induced cells by counting number of droplets of approximately 20 cells from each treatment and calculating the average number of lipid droplets of each cell. The selected compounds were then subjected to dose dependent treatments and the ones which could maintain its potency to reduce fat droplets at lower doses were then selected for western blot analysis. The compound which could reduce the number of fat droplets in the cells were expected to raise the levels of ATGL since they were likely to deter COP1 from ubiquitinating ATGL. This increase was visible only in the protein level and gene expression was likely to remain unchanged since ubiquitination is a […] modification. […]

COCCn1c(=O)c2cc(NC(=O)Nc3cccc(C(C)=O)c3)ccc2n(CCN2CCCCC2)c1=O [Compound 62, 1-(3-acetylphenyl)-3-(3-(2-methoxyethyl)-2,4-dioxo-1-(2-(piperidin-1-yl)ethyl)-1,2,3,4-tetrahydroquinazolin-6-yl)urea] was tested, and the “number of lipid droplets” value was “decrease in the number of lipid droplets”.
